{"source": "patent USH1168H", "about": "“Inhibitors of protein kinase C activity as protectors against septic shock and reducers of ARDS” (priority 1991, dated 1993)", "key": {"[1]": {"system": "de-endothelialized rat aortic rings", "test": "NE-induced contraction of de-endothelialized rat aortic rings after 16 h incubation with LPS and/or sphingosine", "assay_type": "cell-based", "conditions": "for EC50: Rattus norvegicus, 16 h, de-endothelialized, read-out: EC50 value for NE stimulated contraction (EC50 of the agonist NE)", "protocol": "(§1) FIG. 3 is a graph showing contraction to cumulative doses of NE and KCl by rat de-endothelialized aortic rings incubated for 16 hr in combinations of control, LPS, and sphingosine treated media. (Panel A) Contraction to NE by rings incubated in medium only (open circles), medium plus sphingosine (20 μM, closed circles), medium containing LPS (35 ng/ml, open triangles), and medium containing LPS plus sphinogosine (closed triangles). (Panel B) Contraction to KCl by rings incubated and denoted with the same symbols as detailed above. Four rings were prepared from each rat and one ring allocated into each medium formulation to evaluate responses to NE. Rings were similarly prepared to determine responses to KCl. Data is presented as in FIG. 1. N=7 rats apiece for assessment of responses to NE and KCl.\n(§2) Tissue preparation and incubation. Male Sprague-Dawley rats (250-350 g, Taconic Farms, Germantown, N.Y.) were used. Rat thoracic aortic rings were prepared and incubated as detailed by McKenna (14). In brief, 4 or 6 rings were prepared from each rat. Care was taken during dissection to maintain the patency of the endothelium. Some aortas were de-endothelialized before sectioning into rings by perfusion with phosphate buffered saline (PBS) containing 1% deoxycholate for 30 sec followed by a PBS and bubble rinse for 5 min. Rings were incubated in DME (Dulbecco's Modified Eagle's medium) supplemented with 1% fetal calf serum, 100 μg/ml streptomycin, and 100 U/ml penicillin. During incubation, the rings were exposed to combinations of LPS (10 or 35 ng/ml), H7 (25 μM), HA1004 (N-(2-guanidinoethyl)-5-isoquinolinesulfonamide) (25 μM), sphingosine (20 μM), or their vehicles. […] Rings used in measures of contractile performance were placed individually in Petri dishes containing 1.2 ml DME and were distributed so that tissue isolated from each aorta was allocated to every combination of treatments within an experiment. […] All tissue isolated from an aorta (six rings) was allocated to a single treatment. The media and rings were rotated gently for 16-18 hr in an incubator at 37° C. under a 95% O2 -5% CO2 atmosphere.\n(§3) Measurement of aortic ring contraction. After incubation, rings were mounted in tissue baths, equilibrated, and pre-contracted as previously detailed (14). These procedures required approximately 90 min. Rings were maintained in Krebs Ringer Bicarbonate buffer (KRB, 14). Contractions by six or eight rings were measured simultaneously and recorded on multichannel strip chart recorders. […] Other rings were contracted by withdrawing KRB from the tissue baths and adding increasing volumes of a high KCl KRB (120 mM, made by equimolar substitution of KCl for NaCl) to the baths to yield final KCl concentrations of 10 to 80 mM. All rings were blotted and weighed after experiments were completed.\n(§4) Statistics. […] Tests for differences between EC50 values were based on log EC50 values (17). EC50 values were then converted to […] means to allow expression as nanomolar concentrations. Examination of differences among four or six treatment means was by randomized blocks analysis of variance; if significant differences were present, then pairs of means were tested by Student-Newman-Keuls a posteriori tests (18). Paired t-tests were used to assess differences between two treatment means. […] Differences with probabilities of 0.05 or less were accepted as significant. All data are expressed as means±SEM.\nThe amelioration of LPS-induced vascular contractile dysfunction by inhibition of PKC was further explored in de-endothelialized aortic rings incubated with D-sphingosine. The de-endothelialized rings were incubated with 35 ng/ml LPS instead of 10 ng/ml because such rings are not as sensitive to LPS as tissue with an intact endothelium (14). The effective removal of the endothelium was confirmed by the lack of relaxation to acetylcholine by pre-contracted rings during the conditioning procedure."}, "[2]": {"system": "de-endothelialized rat aortic rings", "test": "KCl-induced contraction of de-endothelialized rat aortic rings after 16 h incubation with LPS and/or sphingosine", "assay_type": "cell-based", "conditions": "for EC50: Rattus norvegicus, 16 h, de-endothelialized, read-out: EC50 value for KCl stimulated contraction (EC50 of the agonist KCl)", "protocol": "as §1, §2, §3\nas §4, with “means±SEM. […]” for “means±SEM.”"}, "[3]": {"conditions": "stated without test or source; cited from earlier work"}, "[4]": {"system": "PKC", "conditions": "literature (19, 42); cited from earlier work"}, "[5]": {"system": "cAMP dependent kinase", "conditions": "to an extent comparable to H7 (20); cited from earlier work"}, "[6]": {"system": "intact endothelium rat aortic rings", "test": "KCl-induced contraction of intact rat aortic rings after 16 h incubation with LPS and/or PKC inhibitors", "assay_type": "cell-based", "conditions": "for EC50: Rattus norvegicus, 16 h, intact endothelium, read-out: EC50 value for KCl stimulated contraction (EC50 of the agonist KCl)", "protocol": "FIG. 2 is a graph showing contraction to cumulative doses of KCl by rat aortic rings incubated for 16 hr in combinations of control, LPS, H7, and HA1004 treated media. (Panel A) Response by rings incubated in medium only (open circles), medium plus H7 (25 μM, closed circles), medium containing LPS (10 ng/ml, open triangles), and medium containing LPS plus H7 (closed triangles). (Panel B) For clarity in presentation, responses by rings incubated in medium only (open circles) and LPS treated medium (open triangles) are reproduced from Panel A. Additional rings were incubated in medium plus HA1004 (25 μM, closed circles), and medium containing LPS plus HA1004 (closed triangles). Rings were prepared and data is presented as described in FIG. 1. N=6 rats.\nas §2, §3, §4"}, "[7]": {"system": "cGMP dependent kinase", "conditions": "to an extent comparable to H7 (20); cited from earlier work"}, "[8]": {"system": "intact endothelium rat aortic rings", "test": "NE-induced contraction of intact rat aortic rings after 16 h incubation with LPS and/or PKC inhibitors", "assay_type": "cell-based", "conditions": "for EC50: Rattus norvegicus, 16 h, intact endothelium, read-out: EC50 value for NE stimulated contraction (EC50 of the agonist NE)", "protocol": "FIG. 1 is a graph showing contraction to cumulative doses of NE by rat aortic rings incubated for 16 hr in combinations of control, LPS (endotoxin or lipopolysaccharide), H7, and N-(2-guanidinoethyl)-5-isoquinolinesulfonamide (HA1004; a negative control for H7) treated media. (Panel A) Responses by rings incubated in medium only (open circles), medium plus H7 (25 μM, closed circles), medium containing LPS (10 ng/ml, open triangles), and medium containing LPS plus H7 (closed triangles). (Panel B) For clarity in presentation, responses by rings incubated in medium only (open circles) and LPS treated medium (open triangles) are reproduced from Panel A. Additional rings were incubated in medium plus HA1004 (25 μM, closed circles), and medium containing LPS plus HA1004 (closed triangles). Six rings were prepared from each rat and one ring allocated into each medium formulation. […] The curves are the best fit of the data by nonlinear least squares to a polynomial model. N=8 rats.\nas §2, §3, §4"}, "[9]": {"system": "myosin light chain kinase", "conditions": "to an extent comparable to H7 (20); cited from earlier work"}, "[10]": {"conditions": "LPS-treated media, alone or plus sphingosine 20 μM"}, "[11]": {"conditions": "control media (no LPS) plus sphingosine 20 μM"}, "[12]": {"conditions": "sphingosine 20 μM plus LPS 35 ng/ml"}, "[13]": {"conditions": "LPS 10 ng/ml plus inhibitor 25 μM"}, "[14]": {"conditions": "LPS-treated media (10 ng/ml), alone or plus inhibitor 25 μM"}, "[15]": {"conditions": "control media (no LPS) plus inhibitor 25 μM"}, "[16]": {"conditions": "inhibitor 25 μM by itself, no LPS"}}, "note": "Entries after “also recorded” stand apart in the source; their conditions may differ."}
{"smiles": "CCCCCCCCCCCCC/C=C/[C@@H](O)[C@@H](N)CO", "note": "[Sphingosine, 4-trans-sphingenine]", "values": [{"measurement": "EC50", "setting": "[1]; [10]", "value": 124, "unit": "nM"}, {"measurement": "EC50", "setting": "[1]; [11]", "value": 21, "unit": "nM"}, {"measurement": "abrogation/prevention of LPS-induced contractile dysfunction", "setting": "[1]; de-endothelialized rings, sphingosine 20 μM", "value": "clearly abrogated the majority of the deleterious effects of LPS on rat aortic tissue contractile function; also recorded: can be prevented"}, {"measurement": "contraction to NE", "setting": "[1]; sphingosine 20 μM only, no LPS", "value": "suppressed contractions to NE and KCl; also recorded: significantly diminished maximum contractions to NE and KCl"}, {"measurement": "protection against LPS suppression of NE-induced contraction", "setting": "[1]; [12]", "value": "significantly protected"}, {"measurement": "sensitivity to NE versus control rings", "setting": "[1]; [12]", "value": "remained less than that of control rings"}, {"measurement": "sensitivity to NE versus rings exposed only to LPS", "setting": "[1]; sphingosine 20 μM plus LPS 35 ng/ml, P<0.05", "value": "more sensitive to NE than rings exposed only to LPS"}, {"measurement": "EC50", "setting": "[2]; [10]", "value": 27, "unit": "mM"}, {"measurement": "EC50", "setting": "[2]; [11]", "value": "24 ± 2", "unit": "mM"}, {"measurement": "contraction to KCl", "setting": "[2]; sphingosine 20 μM only, no LPS", "value": "suppressed contractions to NE and KCl; also recorded: significantly diminished maximum contractions to NE and KCl"}, {"measurement": "protection against LPS suppression of KCl-induced contraction", "setting": "[2]; [12]", "value": "significantly protected"}, {"measurement": "EC50 for KCl versus control rings", "setting": "[2]; sphingosine 20 μM, whether or not LPS was present", "value": "not significantly different from control rings"}, {"measurement": "solubility in water", "setting": "[3]", "value": "not soluble in water"}, {"measurement": "inhibition of PKC", "setting": "[4]", "value": "capable of inhibiting PKC in vivo and in vitro"}]}
{"smiles": "N=C(N)NCCNS(=O)(=O)c1cccc2cnccc12", "note": "[HA1004, N-(2-guanidinoethyl)-5-isoquinolinesulfonamide]", "values": [{"measurement": "inhibition of cAMP dependent kinase", "setting": "[5]", "value": "inhibits"}, {"measurement": "protection of maximal contractile performance to KCl", "setting": "[6]; LPS 10 ng/ml plus HA1004 25 μM", "value": "small but significant protection of maximal contractile performance"}, {"measurement": "protection against LPS-induced contractile dysfunction (KCl)", "setting": "[6]; [13]", "value": "did not protect the tissue against LPS-induced diminished sensitivity to KCl"}, {"measurement": "EC50", "setting": "[6]; [14]", "value": 49, "unit": "mM"}, {"measurement": "EC50", "setting": "[6]; [15]", "value": "36 ± 3", "unit": "mM"}, {"measurement": "maximum contraction to KCl", "setting": "[6]; [16]", "value": "significant increases in maximum contraction; also recorded: augmented contractile responses to KCl"}, {"measurement": "sensitivity to KCl", "setting": "[6]; [16]", "value": "no enhancement in sensitivity to KCl"}, {"measurement": "inhibition of cGMP dependent kinase", "setting": "[7]", "value": "inhibits"}, {"measurement": "EC50 and Emax (sensitivity and maximum contraction) to NE versus control tissue", "setting": "[8]; [13]", "value": "significantly depressed sensitivity (Table I) and maximum contraction (FIG. 1B) to NE"}, {"measurement": "EC50", "setting": "[8]; [14]", "value": 0.00276, "unit": "mM"}, {"measurement": "EC50", "setting": "[8]; [15]", "value": 0.000186, "unit": "mM"}, {"measurement": "blocking of LPS effects on contraction to NE", "setting": "[8]; co-incubation, inhibitor 25 μM, LPS 10 ng/ml", "value": "ineffective in blocking the effects of LPS on the tissue"}, {"measurement": "contractile function / sensitivity to NE", "setting": "[8]; [16]", "value": "significant decrease in sensitivity to NE"}, {"measurement": "maximum contraction / ring responses to NE", "setting": "[8]; [16]", "value": "tended to suppress ring responses to NE; also recorded: apparent, but non-significant, diminution in maximum contraction"}, {"measurement": "inhibition of myosin light chain kinase", "setting": "[9]", "value": "inhibits"}]}
